The test system of this assay is Myo5 SH3 domain. Briefly: SPOT analysis of cellulose-bound peptides (WISE), Myo5 SH3 domain (Dataset S4). Format: binding, Saccharomyces cerevisiae. The settings on record: SPOT analysis of cellulose-bound peptides probed with Myo5 SH3 domain; normalized value.

For the sequence SLTSLPPPPPPQFS, the “The normalized value in BLU units (SPOT analysis, Myo5 SH3)” value is given as 7261.1 BLU.
